{"source": "patent US11439646B2", "about": "“Anti-proliferative agents for treating PAH” (Pfizer Inc., priority 2016, dated 2022)", "key": {"hPAAF": {"tested_on": "hPAAF", "assay": "EdU cell proliferation assay, hPAAF", "type": "cell-based", "details": "Homo sapiens, 5% FBS, N = 6, FIG. 1f, read-out: hPAAF IC50 (nM), inhibition of proliferation", "protocol": "(§1) Alternatively, rather than using BrdU, EdU (5-ethynyl-2′-deoxyuridine) can be used. Cells were first pre-incubated with different concentrations of the CDK inhibitor for 30 minutes, and then 5% FBS was added to stimulate cell proliferation. Cells were maintained for 24 h before the proliferation rate was evaluated using EDU Click-iT EdU Alexa Fluor® 647 HCS Assay (Thermofisher Scientific, USA). EdU was added to the medium 16 h before the quantification of EdU incorporation. Proliferation was quantified by scanning the 96-well plates using automated high content imaging platform equipped with appropriate fluorescence microscopic filters for DAPI (4′,6-Diamidino-2-Phenylindole) or Hoechst stain and Cyanine5 dyes as part of the Click-iT assay. Proliferating EdU positive cells detected at Cyanine5 were quantified and normalized to total cell number per well where the total cell number per cell was identified by DAPI or Hoechst signal. The % effect was then calculated:\n(§2) The average (avg) amount (amt) of proliferating cells per concentration of CDK inhibitor with FBS present.\n(§3) The minimum amount of proliferation (min amt of prolif'n) is based on cell numbers in the wells where FBS is not added and no CDK inhibitor is present.\n(§4) The maximum amount of proliferation (max amt of prolif'n) is based on cell numbers in the wells where FBS is added and no CDK inhibitor is present."}, "rPASMC": {"tested_on": "rPASMC", "assay": "EdU cell proliferation assay, rPASMC", "type": "cell-based", "details": "Rattus norvegicus, 5% FBS, N = 6, FIG. 1g, read-out: rPASMC IC50 (nM), inhibition of proliferation", "protocol": "as §1, §2, §3, §4"}, "hPASMC": {"tested_on": "hPASMC", "assay": "EdU cell proliferation assay, hPASMC", "type": "cell-based", "details": "Homo sapiens, 5% FBS, N = 6, FIG. 1e, read-out: hPASMC IC50 (nM), inhibition of proliferation", "protocol": "as §1, §2, §3, §4"}, "rat Su5416/Hx PAH model": {"tested_on": "rat Su5416/Hx PAH model", "assay": "Rat SuHx (Su5416/hypoxia)-induced PAH model (hemodynamics, histomorphometry, IHC)", "type": "in vivo", "protocol": "SuHx-induced Pulmonary Arterial Hypertension: Sprague-Dawley rats were obtained from Charles River Laboratories (200-300 g; vehicle control, n=5; all other groups, n=10). Rats received Semaxinib dissolved in DMSO on day 0, followed by housing in low (13%) oxygen until day 28. Sildenafil (30 mg/kg/dose; BID), Riociguat (10 mg/kg, QD) or Palbociclib (100 mg/kg; QD) was administered in vehicle (0.5% methylcellulose) from days 7-28. Terminal hemodynamic evaluations and necropsy were conducted on day 28 in a manner similar to the MCT study.\nHemodynamic measurements Su/Hx study: On day 28, animals were anesthetized via intramuscular injection of ketamine/xylazine (80/10 mg/kg). A Millar catheter was inserted into the pulmonary artery and pulmonary pressure and hemodynamics were measured as described by Stringer et al., (1981) Catheterization of the pulmonary artery in the closed-chest rat. J. Appl. Physiol. 51, 1047-1050. Hemodynamic values were calculated using the NOTOCORD-Hem software (NOTOCORD, Inc., Croissy sur Sienne, France) (CorDynamics).\nMeasurement of RV hypertrophy. After collection of the heart at necropsy, the atria and great vessels were removed. The RV was separated from the LV and S. The wet weights of the RV and LV+S were measured to calculate the Fulton Index.\nTissue preparation. Under anesthesia, the animals were exsanguinated, and the pulmonary circulation flushed with oxygenated (animals from Example 3 [MCT]) or heparizined (animals from Example 4 [Su5416/Hx]) saline. Trachea, lungs, and heart were removed intact from thoracic cavity and placed in ice-cold saline. Right lung lobes were removed, weighed, and immediately flash frozen in liquid nitrogen. A 10 mL syringe filled with fixative (10% NBF) with attached blunt tip needle (20 g) was used to inflate the left lung lobe and the airway was tied off to keep it consistently expanded. The left lung was then immersion fixed in 10% NBF for 48 hrs and then transferred to 70% EtOH for ≤5 days.\nHistomorphometric analysis. Three, 3-5 μm thick, transverse sections of the left lung lobe were used for histomorphometric analysis. Overall disease severity scores were determined by light microscopic evaluation of hematoxylin and eosin (H&E)-stained lung sections by a board-certified veterinary pathologist. Scores ranged from 0 (absent), 1 (minimal), 2 (mild), 3 (moderate), 4 (marked) to 5 (severe) and were assigned according to the approximate percentage of the tissue affected by the tissue changes (inflammatory, degenerative, vascular and/or proliferative) characteristic of the PAH model. Average vessel wall thickness was evaluated using lung sections prepared with a modified Verhoeff-van Gieson elastin stain. Image analysis was performed using random field sampling (Visiopharm newCAST) of 10% of tissue area with observer-assisted identification of intra-acinar and pre-acinar vessels and application of a nucleator probe to measure vessel wall thickness. Fully muscularized intra-acinar vessel density was evaluated in a similar manner using dual αSMA/Ki67 IHC-stained sections and observer-assisted counting of ≥70% muscularized (i.e. SMA^+), transversely sectioned, ≤50 μm external diameter, intra-acinar vessels with an identifiable lumen. Vessel-associated Ki67^+ and pRb^+ cells were counted in αSMA/Ki67 IHC-and CD31/pRb IHC-stained lung sections, respectively, using random field sampling of 10% of tissue area and observer-assisted identification of Ki67^+ or pRb^+ cells associated with the walls (i.e. in the intima or media) of vessels 100 μm external diameter.\nImmunohistochemistry. Dual α-SMA/Ki67 nuclear antigen: All IHC steps were performed on 3 μm-thick, formalin-fixed, paraffin-embedded (FFPE) sections on Leica Bond Rx automated immunohistochemistry stainer. The instrument was programmed to bake and dewax the slides. […]"}, "[1]": {"details": "days 7 to 28, score scale 0-5, FIG. 4g"}}, "data": [{"smiles": "CC(=O)c1c(C)c2cnc(Nc3ccc(N4CCNCC4)cn3)nc2n(C2CCCC2)c1=O", "note": "[Palbociclib, 6-acetyl-8-cyclopentyl-5-methyl-2-{[5-(piperazin-1-yl)pyridin-2yl]amino}pyrido[2,3-d]pyrimidin-7(8H)-one]", "values": [{"measurement": "IC50", "setting": "hPAAF", "value": 0.4, "unit": "nM"}, {"measurement": "IC50", "setting": "rPASMC", "value": 19, "unit": "nM"}, {"measurement": "IC50", "setting": "hPASMC", "value": 0.3, "unit": "nM"}, {"measurement": "vessel-associated Ki67+ cells in the pulmonary vasculature (IHC)", "setting": "rat Su5416/Hx PAH model; days 7 to 28", "value": "fully reversed"}, {"measurement": "vessel-associated pRb+ cells in the pulmonary vasculature (IHC)", "setting": "rat Su5416/Hx PAH model; days 7 to 28", "value": "fully reversed"}, {"measurement": "Fulton Index", "setting": "rat Su5416/Hx PAH model; days 7 to 28, FIG. 4c", "value": "significant reduction"}, {"measurement": "muscularized intra-acinar vessel density relative to vehicle/Su5416/Hx group", "setting": "rat Su5416/Hx PAH model; days 7 to 28, FIG. 4e", "value": 0.68, "unit": "x Su5416/Hx"}, {"measurement": "structural changes in the pulmonary vasculature (histomorphometry)", "setting": "rat Su5416/Hx PAH model; days 7 to 28, FIG. 4f", "value": "dramatically improved and in some cases fully normalized"}, {"measurement": "heart weight vs vehicle/Su5416/Hx group", "setting": "rat Su5416/Hx PAH model; days 7 to 28, FIG. 4j", "value": "significant reduction"}, {"measurement": "average vessel wall thickness, intra-acinar and pre-acinar vessels", "setting": "rat Su5416/Hx PAH model; days 7 to 28, FIG. 4d", "value": "significantly reduced"}, {"measurement": "disease severity scores, mean", "setting": "rat Su5416/Hx PAH model; [1]", "value": 0.25}, {"measurement": "disease severity scores, range", "setting": "rat Su5416/Hx PAH model; [1]", "value": "0-1.5"}, {"measurement": "hemodynamic endpoints / hemodynamic changes", "setting": "rat Su5416/Hx PAH model; palbociclib 100 mg/kg/day PO QD days 7 to 28", "value": "restored hemodynamic endpoints closer to the non-diseased control group"}, {"measurement": "hemodynamic endpoints / hemodynamic changes", "setting": "rat Su5416/Hx PAH model; palbociclib 100 mg/kg/day PO QD days 7 to 28, listed as palbociclib", "value": "near-complete suppression"}]}]}
